Measured values published in publication PMC8224385, “X-ray screening identifies active site and allosteric inhibitors of SARS-CoV-2 main protease” (Science (New York, N.y.), 2021).
Counter-ions that a name gives are not always drawn. Like-named read-outs stand apart in the source and are kept apart here.

Tests used:
SARS-CoV-2 = assay: microbe, parasite or virus in culture; assay type: cell-based; conditions: for reduction in infectious particles / antiviral activity (in words): SARS-CoV-2, Vero E6 cells; for reduction in infectious particles: compounds considered antivirally active
in vitro = conditions: African green monkey
[1] = Cell viability of Vero E6 cells (CCK-8 method); conditions: African green monkey
[2] = Severe acute respiratory syndrome coronavirus 2, Vero C1008, SARS-CoV-2 infectious particles, Vero E6 cells, immunofocus assay, read-out: EC50 for the viral titer reduction
[3] = Severe acute respiratory syndrome coronavirus 2, Vero C1008, read-out: EC50 for the viral titer reduction

Row | Compound | EC50 (SARS-CoV-2; [2]) | CC50 (in vitro) | reduction in infectious particles (SARS-CoV-2) | EC50 (SARS-CoV-2; [3]) | CC50 [1] | antiviral activity (in words) (SARS-CoV-2)
1 | CC(C)c1ccc2c(c1)C(N1CCN(CCO)CC1)Cc1ccc(F)cc1S2 (centres unmarked) [isofloxythepin] | 4.8 µM | 17 µM | – | – | – | –
2 | CCc1cc(O)c(Oc2ccc(C(N)=O)cc2F)cc1F [MUT056399] | 38.2 µM | > 100 µM | ≥ 100 fold | – | – | –
3 | O=C1c2ccccc2CCC1CNCCc1ccc(O)cc1 (stereo not drawn) [HEAT, 2-[β-(4-hydroxyphenyl)-ethylaminomethyl]-tetralone] | 24.1 µM | 55.4 µM | – | – | – | –
4 | O=C1Nc2ccccc2C2(CCN(CCc3ccc(C(F)(F)F)cc3)CC2)O1 [RS-102895] | – | – | – | 19.8 µM | 55 µM | –
5 | O=c1n(CC2CO2)c(=O)n(CC2CO2)c(=O)n1CC1CO1 (centres unmarked) [triglycidyl isocyanurate] | 30 µM | – | ≥ 100 fold | – | > 100 µM | –
6 | CCc1ccc(Cc2ccc3c(c2)[C@]2(OC3)O[C@H](CO)[C@@H](O)[C@H](O)[C@H]2O)cc1 [tofogliflozin] | – | – | – | – | – | inactive
7 | PD-168568 | – | – | – | – | – | inactive
8 | CC(C(O)c1ccc(O)cc1)N1CCC(Cc2ccccc2)CC1 (centres unmarked) [ifenprodil] | 46.9 µM | – | ≥ 100 fold | – | > 100 µM | –
9 | CCOc1cc2ncc(C#N)c(Nc3ccc(F)c(Cl)c3)c2cc1NC(=O)/C=C/CN(C)C [pelitinib] | 1.25 µM | 14 µM | ≥ 100 fold | – | – | –
10 | Cc1ccc(C(=O)C(C)CN2CCCCC2)cc1 (centres unmarked) [tolperisone] | 19.2 µM | > 100 µM | ≥ 100 fold | – | – | –
11 | O=C(NC1CCNCC1)c1n[nH]cc1NC(=O)c1c(Cl)cccc1Cl [AT7519, N-(4-piperidinyl)-4-(2,6-dichlorobenzoylamino)-1H-pyrazole-3-carboxamide] | – | – | ≥ 100 fold | 25.2 µM | – | –
12 | CCCC[C@@H](C=O)NC(=O)[C@H](CC(C)C)NC(=O)OCc1ccccc1 [calpeptin] | – | – | ≥ 100 fold | – | > 100 µM | –
13 | c1ccc2nc(N3CCNCC3)ccc2c1 [quipazine maleate] | 31.6 µM | > 100 µM | – | – | – | –
